By IC50 is commonly meant the concentration needed to halve the response being measured.

Here are results for one compound from PMC12844124, “Synthesis and Study of Substituted Chalcones Combined with Fluoroazobenzenes—New Photoswitches for Application in Biological Systems” (Molecules, 2026).

Molecules are shown by their SMILES.

For one data set, the system named is BJ fibroblasts. The data set is described as follows: MTS cell proliferation assay, BJ fibroblasts. The following applies: for IC50: Homo sapiens, Fibroblast. In kind it is cell-based, human. How it is done: Human BJ fibroblasts (American Type Cell Culture Collection, Manassas, VA, USA, CRL-2522) and human prostate cancer cell line PC-3 (American Type Cell Culture Collection, Manassas, VA, USA, CRL-1435), derived from bone metastases, were routinely grown in […]) Medium (ThermoFisher, Waltham, MA, USA, 21127-022) and supplemented with heat-inactivated 10% Fetal Bovine Serum (Biowest, France, […]) and 1% antibiotic solution (Biowest, Nuaillé, France, L0022), in a humidified 5% CO2 atmosphere at 37 °C. Cells were used between 3 and 20 passages. The 96-well plates were prepared by seeding 5 × 10^3 or 2.5 × 10^3 cells per well, for 24 and 48 h treatments, respectively, with at least five technical and two biological repeats. […] The cells were treated with either the Z conformer of 17j, with continuous illumination with 525 nm light, or the E conformer. The Z conformer was prepared by illuminating its DMSO solution with 525 nm light overnight. The cell proliferation was analyzed with CellTiter Aqueous One Solution Cell Proliferation MTS (3-(4,5-dimethylthiazol-2-yl)-5-(3-carboxymethoxyphenyl)-2-(4-sulfophenyl)-2H-tetrazolium) Assay (Promega, Madison, WI, USA, G5430) after 24 or 48 h of treatment. The absorbance was measured at 490 and 670 nm with FLUOStar Omega plate reader (BMG LABTECH GmbH, Ortenberg, Germany). The statistical analysis was performed within R 4.5.1 project. […] The log-logistic four parametric model (4PL), with the lower limit boundary set to 0 and group fitting, was used, as available in the drc package, to fit cell proliferation data. The residuals were checked for normality with QQ and density plots and considered as sufficiently normally distributed. The assessment metrics for model goodness of fit were performed with functions available in the drc package and with custom ones. When appropriate, the delta method was applied to obtain error of central tendency. To assess the goodness of fit for each of the biological replicates, deviance R^2 (DR^2) was calculated and assessed. […] The DR^2 was calculated according to the following Equation: 1 - (Dres/Dnull), where Dres-residual deviance and Dnull-null deviance (deviance of the model with mean as a predicted value). The null hypothesis was assessed with the two-way ANOVA with Tukey's post hoc test for multiple comparisons or with the two-way t-test when only two groups were compared. The differences in the cell cycle percentages were assessed with the two-way ANOVA with Tukey's post hoc test.
(In general: Tetrazolium dyes change colour on reduction, which living cells bring about.)

Data set [1] in a line: Photostationary state (PSS) composition by 19F NMR. It counts as physicochemical. The following applies: irradiation 525 nm, DMSO-d6. An excerpt:
Azo compounds have been applied in various fields due to their ability to undergo structural changes, with one of the most interesting applications being the direct conversion of light into mechanical energy. However, azobenzenes generally face two main limitations that hinder their practical use in biological and materials sciences. The first is the need for UV light to induce the E→Z isomerization through π→π* excitation, which can potentially interfere with and damage the surrounding environment. The second limitation is the typically incomplete reverse Z→E photoisomerization, which is induced by irradiation in the visible region. In this region, the n→π* bands of the E and Z isomers largely overlap, making it difficult to achieve E-rich photostationary states (PSSs) after back-switching. These limitations can be overcome by modifying azobenzene in such a way that the n→π* bands of the E and Z isomers are sufficiently separated. If the separation is large enough, the two n→π* bands can be distinct, allowing visible light to selectively isomerize both isomers with high to complete E/Z photoconversions. We are looking for switches that operate within the visible light range of 380–750 nm, which is harmless. Fluorine-substituted azobenzenes are well-suited for designing visible-light-responsive systems, offering stable and bidirectional photoconversions along with tissue-compatible properties. We confirmed that the compounds we synthesized successfully dock with tubulin. In the next step, we tested whether the added azo compound would meet our expectations as a visible light switch. For this purpose, we used NMR spectroscopy. We measured ^19F spectra of (17a–17c, 17e–17g, and 17i–17l) at nine wavelengths from 390 nm to 610 nm to check which wavelengths produce the most Z isomer after exposure (see Section S4.2 in Supplementary Materials). We selected DMSO as the solvent due to its ability to dissolve both polar and nonpolar molecules, which is essential for the analytical methods employed in this study. Its intermediate polarity also makes it a good surrogate for both organic and aqueous solvents. Additionally, DMSO is commonly used for preparing stock solutions, which are then illuminated and diluted into aqueous systems for assessing biological activity. […]
Figure 2 (a) Photostationary state (PSS) compositions for chalcones (17a–17c, 17e–17g, and 17i–17l) determined by ^19F NMR analysis (c ≈ 100 mM in DMSO-d6), presented in a bar chart; (b) representative multiple photoswitching rounds of 60 µM of (17j) in DMSO by pulsed green (525 nm) and blue (430 nm) light illumination. The photochemical stability of the drug is analyzed via repeated cycles of irradiation (software: Microsoft Excel).

`COc1cc(/C=C/C(=O)c2cccc(/N=N/c3c(F)cccc3F)c2)cc(OC)c1` [Compound 17j]: the “growth inhibition (normalized asymptote)” value in the data set with BJ fibroblasts (E conformer, 48 h) worked out at 5.3 ± 1.2%; in the data set on BJ fibroblasts (Z conformer, 24 h), 18.7 ± 9.7%; in the data set with BJ fibroblasts (Z conformer, 48 h), 13.3 ± 6.1%. In addition, the IC50 with BJ fibroblasts (24 h, E conformer, 24 h treatment) worked out at 6.59 ± 0.38 µM; in the data set on BJ fibroblasts (24 h, Z conformer, 24 h treatment), 10.1 ± 1.4 µM; with BJ fibroblasts (48 h, E conformer, 48 h treatment), 2.66 ± 0.15 µM; in the data set with BJ fibroblasts (48 h, Z conformer, 48 h treatment) it was 4.02 ± 0.39 µM. Also, the “share of the Z configuration (PSS)” value in data set [1] was 73.2%.
